Counter-ions that a name gives are not always drawn.

The text below walks through data of US20220107328A1, “METHODS OF TREATING LIVER DISEASES” (Camp4 Therapeutics Corporation, priority 2018, published 2022).

One series concerns PCSK9 mRNA. Kind of series: qRT-PCR of PCSK9 mRNA in primary hepatocytes. Type of series: cell-based, human. Conditions: donor 4178, 3 μM, relative to GUSB. A general note: In qPCR the cycle at which signal appears reflects the starting amount.
The subject of series [1] is PNPLA3 mRNA. Briefly: qRT-PCR of PNPLA3 mRNA in human primary hepatic stellate cells. Conditions: 3 μM, relative to GAPDH. Type of series: cell-based.
The subject of series [2] is PNPLA3 mRNA. Briefly: qRT-PCR of PNPLA3 mRNA in compound-treated primary human hepatocytes. Conditions: for Primary Hepatocytes 4178 PNPLA3 (fold change in mRNA expression): donor 4178, 3 μM; for Primary Hepatocytes 4178 PNPLA3 (fold change in mRNA expression) / Primary Hepatocytes 4282 PNPLA3 (fold change in mRNA expression): relative to GUSB; for Primary Hepatocytes 4282 PNPLA3 (fold change in mRNA expression): donor 4282, 3 μM; for Relative PINPLA3 mRNA: hepatocytes.

The next series relates to COL1A1 mRNA. Briefly: qRT-PCR of COL1A1 mRNA in human primary hepatic stellate cells. The series is classed as cell-based. To be noted: 3 μM, relative to GAPDH.

Experimental for COL1A1 mRNA: Cells were plated at a density of 17000 cells/well in a 96-well plate and allowed to adhere overnight. The following day cell culture media was replenished with the indicated concentration(s) of compound for 18 hours. […] Medium was removed after 18 hours and cells were processed for further analysis, e.g. qRT-PCR.
Analysis of the fold changes in expression as measured by qRT-PCR were performed using the technique below. The control was DMSO, and the treatment was the selected compound (CPD). The internal control was GAPDH or B-Actin (or otherwise indicated), and the gene of interest is the target. First, the averages of the 4 conditions were calculated for normalization: DMSO:GAPDH, DMSO:Target, CPD: GAPDH, and CPD:Target. Next, the ΔCT of both control and treatment were calculated to normalize to internal control (GAPDH) using (DMSO:Target)−(DMSO:GAPDH)=ΔCT control and (CPD:Target)−(CPD: GAPDH)=ΔCT experimental. Then, the ΔΔCT was calculated by ΔCT experimental−ΔCT control.
Candidate compounds were tested in stellate cells for their ability to modulate PNPLA3 and COL1A1. Stellate cells were treated with serial dilutions of the compounds, ranging from 0.1 μM to 100 μM. Changes in PNPLA3 (or COL1A1) mRNA levels in stellate cells were analyzed with qRT-PCR.

In the case of `O=C1OC(COc2ccccc2[N+](=O)[O-])CC1Cc1ccccc1` (stereo not drawn) [Compound 3BDO], the “Primary Hepatocytes 4178 PCSK9 (fold change in mRNA expression)” value with PCSK9 mRNA is recorded as 1.01. Further, in the series on PNPLA3 mRNA [1], the “Primary Stellate cells PNPLA3 (fold change in mRNA expression)” value turned out to be 0.91. Further, in the series on PNPLA3 mRNA [2], the “Primary Hepatocytes 4178 PNPLA3 (fold change in mRNA expression)” value was determined as 1.10 and the “Primary Hepatocytes 4282 PNPLA3 (fold change in mRNA expression)” value stood at 1.00. For the same compound, the “Primary Stellate cells COL1A1 (fold change in mRNA expression)” value in the series on COL1A1 mRNA is 1.03.

In the case of `Cc1nc(-c2cn3c(n2)-c2ccc(-c4cnn(C(C)(C)C(N)=O)c4)cc2OCC3)n(C(C)C)n1` [GDC-0032], the “Primary Hepatocytes 4178 PCSK9 (fold change in mRNA expression)” value in the series with PCSK9 mRNA is 0.47. In addition, the “Primary Stellate cells PNPLA3 (fold change in mRNA expression)” value in the series on PNPLA3 mRNA [1] was 0.61. In the series with PNPLA3 mRNA [2], the “Primary Hepatocytes 4178 PNPLA3 (fold change in mRNA expression)” value was determined as 0.58 and the “Primary Hepatocytes 4282 PNPLA3 (fold change in mRNA expression)” value is 0.60. Besides, the “Primary Stellate cells COL1A1 (fold change in mRNA expression)” value in the series with COL1A1 mRNA stood at 1.05.

Take `COc1ncc(-c2ccc3nccc(-c4ccnnc4)c3c2)cc1NS(=O)(=O)c1ccc(F)cc1F` [GSK2126458]: in the series on PCSK9 mRNA, the “Primary Hepatocytes 4178 PCSK9 (fold change in mRNA expression)” value came out at 0.91. Moreover, the “Primary Stellate cells PNPLA3 (fold change in mRNA expression)” value with PNPLA3 mRNA [1] came to 0.90. Besides, in the series with PNPLA3 mRNA [2], the “Primary Hepatocytes 4178 PNPLA3 (fold change in mRNA expression)” value is given as 0.92 and the “Primary Hepatocytes 4282 PNPLA3 (fold change in mRNA expression)” value was 0.80. Moreover, in the series with PNPLA3 mRNA [2] (1 uM), the “Relative PINPLA3 mRNA” value is recorded as 0.395. Also, the “Relative PINPLA3 mRNA” value in the series with PNPLA3 mRNA [2] (10 uM) amounted to 0.800. Also, in the series with COL1A1 mRNA, the “Primary Stellate cells COL1A1 (fold change in mRNA expression)” value was 0.42.

Take `C[C@H](NC(=O)c1c(N)nn2cccnc12)c1cc2cccc(C#Cc3cnn(C)c3)c2c(=O)n1-c1ccccc1` [IPI-549]: in the series with PCSK9 mRNA, the “Primary Hepatocytes 4178 PCSK9 (fold change in mRNA expression)” value was found to be 0.74. For the same compound, in the series on PNPLA3 mRNA [1], the “Primary Stellate cells PNPLA3 (fold change in mRNA expression)” value was 0.75. In the series on PNPLA3 mRNA [2], the “Primary Hepatocytes 4178 PNPLA3 (fold change in mRNA expression)” value was determined as 0.68 and the “Primary Hepatocytes 4282 PNPLA3 (fold change in mRNA expression)” value is on record as 0.68. Further, the “Primary Stellate cells COL1A1 (fold change in mRNA expression)” value in the series on COL1A1 mRNA came to 1.00.

For `CO[C@@H](C)Cn1c(=O)n(C)c2cnc3ccc(-c4cncc(C(C)(C)O)c4)cc3c21` [LY3023414], the “Primary Hepatocytes 4178 PCSK9 (fold change in mRNA expression)” value in the series on PCSK9 mRNA was 0.65. The “Primary Stellate cells PNPLA3 (fold change in mRNA expression)” value in the series on PNPLA3 mRNA [1] was 0.94. In the series on PNPLA3 mRNA [2], the “Primary Hepatocytes 4178 PNPLA3 (fold change in mRNA expression)” value is recorded as 0.80 and the “Primary Hepatocytes 4282 PNPLA3 (fold change in mRNA expression)” value amounted to 1.00. Also, in the series on COL1A1 mRNA, the “Primary Stellate cells COL1A1 (fold change in mRNA expression)” value is listed as 0.49.

Consider `O=[N+]([O-])c1ccc(Nc2nc(N3CCOCC3)nc(N3CCOCC3)n2)cc1` [MHY1485], for which the “Primary Hepatocytes 4178 PCSK9 (fold change in mRNA expression)” value in the series on PCSK9 mRNA was 1.04. Moreover, the “Primary Stellate cells PNPLA3 (fold change in mRNA expression)” value in the series with PNPLA3 mRNA [1] was found to be 0.86. Further, in the series on PNPLA3 mRNA [2], the “Primary Hepatocytes 4178 PNPLA3 (fold change in mRNA expression)” value amounted to 1.10 and the “Primary Hepatocytes 4282 PNPLA3 (fold change in mRNA expression)” value came out at 1.20. For the same compound, the “Primary Stellate cells COL1A1 (fold change in mRNA expression)” value with COL1A1 mRNA was found to be 0.87.

On to `Nc1nc2cc(-c3ccc4ncc(C(=O)N5CCOCC5)n4c3)ccc2o1` [MLN1117], for which the “Primary Hepatocytes 4178 PCSK9 (fold change in mRNA expression)” value in the series on PCSK9 mRNA came out at 0.69. Also, the “Primary Stellate cells PNPLA3 (fold change in mRNA expression)” value in the series with PNPLA3 mRNA [1] turned out to be 0.70. Besides, in the series with PNPLA3 mRNA [2], the “Primary Hepatocytes 4178 PNPLA3 (fold change in mRNA expression)” value came out at 1.57 and the “Primary Hepatocytes 4282 PNPLA3 (fold change in mRNA expression)” value is 0.97. Besides, the “Primary Stellate cells COL1A1 (fold change in mRNA expression)” value in the series with COL1A1 mRNA turned out to be 1.14.

Regarding `Nc1cc(C(F)(F)F)c(-c2cc(N3CCOCC3)nc(N3CCOCC3)n2)cn1` [NVP-BKM120 (Hydrochloride)], the “Primary Hepatocytes 4178 PCSK9 (fold change in mRNA expression)” value in the series on PCSK9 mRNA stood at 0.50. The “Primary Stellate cells PNPLA3 (fold change in mRNA expression)” value in the series with PNPLA3 mRNA [1] stood at 0.43. Moreover, in the series on PNPLA3 mRNA [2], the “Primary Hepatocytes 4178 PNPLA3 (fold change in mRNA expression)” value is recorded as 0.56 and the “Primary Hepatocytes 4282 PNPLA3 (fold change in mRNA expression)” value is 0.70. Besides, the “Primary Stellate cells COL1A1 (fold change in mRNA expression)” value with COL1A1 mRNA is given as 0.70.

For `Nc1cc(C(F)(F)F)c(-c2cc(N3CCOCC3)nc(N3CCOCC3)n2)cn1` [NVP-BKM120], in the series with PCSK9 mRNA, the “Primary Hepatocytes 4178 PCSK9 (fold change in mRNA expression)” value is on record as 0.75. The “Primary Stellate cells PNPLA3 (fold change in mRNA expression)” value with PNPLA3 mRNA [1] came to 0.43. For the same compound, in the series with PNPLA3 mRNA [2], the “Primary Hepatocytes 4178 PNPLA3 (fold change in mRNA expression)” value is given as 0.60 and the “Primary Hepatocytes 4282 PNPLA3 (fold change in mRNA expression)” value stood at 0.70. In addition, the “Primary Stellate cells COL1A1 (fold change in mRNA expression)” value in the series with COL1A1 mRNA was found to be 0.66.

`Nc1cc(C(F)(F)F)c(-c2nc(N3CCOCC3)nc(N3CCOCC3)n2)cn1` [PQR309]: in the series with PCSK9 mRNA, the “Primary Hepatocytes 4178 PCSK9 (fold change in mRNA expression)” value was determined as 0.50. Moreover, the “Primary Stellate cells PNPLA3 (fold change in mRNA expression)” value in the series on PNPLA3 mRNA [1] is on record as 0.88. Also, in the series on PNPLA3 mRNA [2], the “Primary Hepatocytes 4178 PNPLA3 (fold change in mRNA expression)” value is 0.47. Moreover, the “Primary Hepatocytes 4282 PNPLA3 (fold change in mRNA expression)” value in the series with PNPLA3 mRNA [2] amounted to 0.60. For the same compound, the “Relative PINPLA3 mRNA” value was determined as 1.353 with PNPLA3 mRNA [2] (0.1 uM), 0.8236 with PNPLA3 mRNA [2] (0.3 uM), 0.5267 in the series with PNPLA3 mRNA [2] (1 uM) and 0.4657 with PNPLA3 mRNA [2] (3 uM). In addition, the “PNPLA3 expression by reported compound specificity (in words)” value with PNPLA3 mRNA [2] (summary of mTOR/PI3K inhibitor testing) is given as “most robust PNPLA3 inhibition”. In addition, in the series with COL1A1 mRNA, the “Primary Stellate cells COL1A1 (fold change in mRNA expression)” value turned out to be 0.81.
